Data reported in patent publication US20230276803A1, “A PESTICIDALLY ACTIVE MIXTURE COMPRISING THIETANYLOXY COMPOUND, OXIDES OR SALTS THEREOF” (PI INDUSTRIES LTD., priority 2020, published 2023).

Legend:
Format in all cases: in vivo
Phakopsora pachyrhizi = assay: Preventive glasshouse test against Phakopsora pachyrhizi in soybean (Example H); details: preventive spray
From the text: (§1) In which E represents the expected percentage of inhibition of the pests for the combination of two insecticides or one insecticide and one fungicide at defined doses (for example equal to x and y respectively), x is the percentage of inhibition observed for the pest/disease by the compound (1) at a given dose (equal to x), y is the percentage of inhibition observed for the pest/disease by the compound (2) or (3) at a defined dose (equal to y). When the percentage of inhibition observed for the combination is greater than E, there is a synergistic effect.
The single compounds or the respective compound combinations were dissolved in 2% dimethyl sulfoxide/acetone and then mixed with water containing an emulsifier to a calibrated spray volume of 50 ml. The test solutions were poured into spray bottles for further applications.
To test the preventive activity of compounds, healthy young Soybean plants, raised in the greenhouse, were sprayed with the active compound preparation at the stated application rates inside the spray cabinets using hollow cone nozzles. One day after treatment, the plants were inoculated with a suspension containing 2×10^5 Phakopsora pachyrhizi conidia. The inoculated plants were then kept in a greenhouse chamber at a temperature of 22-24° C. and 80-90% relative humidity for disease expression.
A visual assessment of the performance of the single compounds and respective compound combinations was carried out by rating the disease severity (0-100% scale) on treated plants 3, 7, 10 and 15 days after application. Efficacy (% control) of the compounds was calculated by comparing the disease rating in the treatment with the one of the untreated control. The compounds were also assessed for their plant compatibility by recording symptoms like necrosis, chlorosis and stunting. The results have been described for the compound of formula (I-1) in Table H.

Plutella xylostella [1] = assay: Leaf dip method (cabbage) against Plutella xylostella (Example C); details: Plutella xylostella, foliar, 72 h, read-out: Observed Efficacy (%)
From the text: as §1
The leaf dip method was used, wherein the required quantity of the compound or respective compound combinations were weighed and dissolved in a test solution prepared in tubes. The tubes were put on a vortex at 2000 rpm for 90 min for proper mixing and then diluted with a 0.01% Triton-X solution to the desired test concentration. Cabbage leaves were dipped into the solution for 10 seconds, shade dried for 20 min and then transferred to single cells of bioassay trays. A single second instar larva was released into each cell and the tray was covered with a lid. The bio-assay trays were kept under laboratory conditions at a temperature of 25° C. and relative humidity of 70%. Observations on dead, moribund and live larvae were recorded 72 h after the release. Percent mortality was calculated by combining dead and moribund larvae and comparing the result with the one of the untreated control. The results are shown for compound of formula (I-1) in Table C.

[2] = system: Parastagonospora nodorum/Septoria nodorum/Stagnospora nodorum; assay: Preventive glasshouse test against Septoria nodorum in wheat (Example J); details: 500 ppm, preventive spray
From the text: as §1
The single compounds or respective compound combinations were dissolved in 2% dimethyl sulfoxide/acetone and then mixed with water containing emulsifier to a calibrated spray volume of 50 mL. The test solutions were poured into spray bottles for further applications.
[…] One day after treatment, the plants were inoculated with a spore suspension containing 2.8×10^6 Stagnospora nodorum inoculum.
The inoculated plants were then kept in a greenhouse chamber at 22-25° C. temperature and 90-100% relative humidity for disease expression.
A visual assessment of the performance of the single compounds or compound combinations was carried out by rating the disease severity (0-100% scale) on treated plants 3, 7, 10 and 15 days after application. Efficacy (% control) of the single compounds and mixtures was calculated by comparing the disease rating in the treatment with the one of the untreated control. The compounds were also assessed for their plant compatibility by recording symptoms like necrosis, chlorosis and stunting. The results have been described for the compound of formula (I-1) in Table J.

Plutella xylostella [3] = assay: Leaf dip method (cabbage leaves), Bacillus thuringiensis mixture against Plutella xylostella (Example F); details: 0.1 ppm; 72 h
From the text: as §1
(§2) The leaf dip method was used, wherein the required quantity of the compounds were weighed and dissolved in a test solution prepared in tubes. The tubes were put on a vortex at 2000 rpm for 90 min for proper mixing and then, for the single compounds, diluted with a 0.01% Triton-X solution, for the combinations, diluted with a 0.01% Triton-X solution containing formulated Bt, to get the desired test concentration. Cabbage leaves were dipped in the solution for 10 seconds, shade dried for 20 min and then transferred to single cells of bioassay trays. […] Observations on dead, moribund and live larvae were recorded 72 h after the release. Percent mortality was calculated by combining dead and moribund larvae and comparing the results to the one of the untreated control. […]

Helicoverpa armigera = assay: Leaf dip method (tomato leaves), Bacillus thuringiensis mixture against Helicoverpa armigera (Example D); details: 0.1 ppm; 72 h
From the text: as §1
as §2, with “desired test concentrations. Tomato leaves were” for “desired test concentration. Cabbage leaves were”, “cells of the bioassay trays.” for “cells of bioassay trays.”, “were recorded at 72 h” for “were recorded 72 h”, “comparing the result to the” for “comparing the results to the”

Erysiphe cichoracearum = assay: Preventive glasshouse test against Erysiphe cichoracearum in cucumber (Example K); details: 500 ppm, preventive spray
From the text: as §1
The single compounds or the respective compound combinations were dissolved in 2% dimethyl sulfoxide/acetone and then mixed with water containing emulsifier to a calibrated spray volume of 50 mL. The test solutions were poured into spray bottles for further applications. […]
A visual assessment of the performance of the compounds and the respective compound combinations was carried out by rating the disease severity (0-100% scale) on treated plants 3, 7, 10 and 15 days after application. Efficacy (% control) of the single compounds or compound combinations was calculated by comparing the disease rating in the treatment with the one of the untreated control. The compounds were also assessed for their plant compatibility by recording symptoms like necrosis, chlorosis and stunting. […]

Compound: Cc1cc(Cl)cc(C(=O)NC(C)(C)C)c1NC(=O)c1cc(OC2CS(=O)(=O)C2)nn1-c1ncccc1Cl [Compound (I-1), N-(2-(tert-butylcarbamoyl)-4-chloro-6-methylphenyl)-1-(3-chloropyridin-2-yl)-3-((1,1-dioxidothietan-3-yl)oxy)-1H-pyrazole-5-carboxamide]
- Observed Efficacy (%) (Phakopsora pachyrhizi; 100 ppm): 44%
- Observed Efficacy (%) (Phakopsora pachyrhizi; 500 ppm): 47%
- pest or weed control at 0.0025 ppm (Plutella xylostella [1]; 0.0025 ppm): 0%
- pest or weed control at 0.004 ppm (Plutella xylostella [1]; 0.004 ppm): 0%
- pest or weed control at 0.005 ppm (Plutella xylostella [1]; 0.005 ppm): 0%
- pest or weed control at 0.02 ppm (Plutella xylostella [1]; 0.02 ppm): 12.5%
- pest or weed control at 0.03 ppm (Plutella xylostella [1]; 0.03 ppm): 12.5%
- pest or weed control at 0.05 ppm (Plutella xylostella [1]; 0.05 ppm): 12.5%
- pest or weed control at 0.1 ppm (Plutella xylostella [1]; 0.1 ppm): 12.5%
- pest or weed control at 0.5 ppm (Plutella xylostella [1]; 0.5 ppm): 25%
- Observed Efficacy (%) [2]: 37%
- Observed Efficacy (%) (Plutella xylostella [3]): 0%
- Observed Efficacy (%) (Helicoverpa armigera): 12.5%
- Observed Efficacy (%) (Erysiphe cichoracearum): 28%
